Patent US7759504B2, “Triarylamine derivative” (Fujifilm Corporation, priority 2007, dated 2010)

Experiments:
Format in all cases: physicochemical
[1] = Heat resistance of PMMA film sample (colorant residual rate); settings: 80° C. for 400 hours; 5% by weight in PMMA film; absorbance at maximum absorption wavelength after/before treatment
Protocol: (§1) Into 25 ml of dichloromethane were dissolved 2.5 g of PMMA, and 0.125 g of the triarylamine derivative, and the solution was coated on a 100 μm-thick PET film. This was dried at 80° C. for 2 hours under reduced pressure to prepare a sample for assessment having a thickness of from 2 to 3 μm. The sample for assessment contained the triarylamine derivative at 5% by weight based on PMMA.
(§2) The sample for assessment obtained above was heat-treated at 80° C. for 400 hours. The absorbance of the assessment sample at the maximum absorption wavelength of the triarylamine derivative (colorant) was measured, and a colorant residual rate (%) was obtained as a ratio of the absorbance after heat treatment relative to the absorbance before heat treatment.

[2] = Wet heat resistance of PMMA film sample (colorant residual rate); settings: 60° C. and relative humidity of 90% for 200 hours; 5% by weight in PMMA film; absorbance after/before treatment
Protocol: as §1
as §2, with “subjected to wet heat treatment” for “heat-treated”, “60°” for “80°”, “C. and a relative humidity of 90%” for “C.”, “200” for “400”, “after wet” for “after”, “before wet” for “before”

[3] = Solubility in 2-butanone (MEK)
[4] = Light resistance of PMMA film sample (colorant residual rate); settings: 170 hours xenon lamp (170 thousands lux, UV cut filter); 5% by weight in PMMA film; absorbance after/before treatment
Protocol: as §1
as §2, with “irradiation-treated” for “heat-treated at 80° C.”, “170 hours with a xenon lamp (170 thousands lux, using an UV cut filter).” for “400 hours.”, “irradiation” for “heat”

Heat Resistance (colorant residual rate) [1]	Wet Heat Resistance (colorant residual rate) [2]	Solubility (w/v) [3]	Light Resistance (colorant residual rate) [4]	Structure (SMILES)
80%	45%	16% w/v %	98%	CCCCN(CCCC)c1ccc([N+](=C2C=CC(=[N+](CCCC)CCCC)C=C2)c2ccc(N(CCCC)CCCC)cc2)cc1 [Comparative Example, reference compound]
82%	48%	23% w/v %	98%	CCCCN(CCCC)c1ccc([N+](=C2C=CC(=[N+](CCCC)CCCC)C=C2C)c2ccc(N(CCCC)CCCC)cc2)cc1 [Compound 28]
87%	89%	32% w/v %	99%	CCCCN(CCCC)c1ccc([N+](=C2C=CC(=[N+](CCCC)CCCC)C=C2C)c2ccc(N(CCCC)CCCC)cc2)cc1 [Compound 79]
